{"source": "patent US20250073146A1", "about": "“MIXED SURFACTANT FOR PREPARING TRANSPARENT MICROEMULSION AND FINE NANOEMULSION, AND COSMETIC COMPOSITION PREPARED USING THE SAME” (BIOBEAUTECH Co., Ltd., priority 2023, published 2025)", "experiment": "HLB of surfactant", "type": "physicochemical"}
{"substance": "polyglyceryl-10 oleate", "values": [{"measurement": "average HLB", "result": 12.5}]}
{"substance": "sucrose distearate", "values": [{"measurement": "average HLB", "result": 6.3}]}
